Reference: PMC11167047 (Cell Death Discovery, 2024)

What was measured:
Test in all cases: kinome screen (33PanQinase)
Format in all cases: biochemical
ACVR1B = biological target: T1, ACVR1B (Homo sapiens, UniProt P36896)
T1 construct: purchased Reaction Biology Europe GmbH (formerly ProQinase)
T1 sequence (P36896 24-505): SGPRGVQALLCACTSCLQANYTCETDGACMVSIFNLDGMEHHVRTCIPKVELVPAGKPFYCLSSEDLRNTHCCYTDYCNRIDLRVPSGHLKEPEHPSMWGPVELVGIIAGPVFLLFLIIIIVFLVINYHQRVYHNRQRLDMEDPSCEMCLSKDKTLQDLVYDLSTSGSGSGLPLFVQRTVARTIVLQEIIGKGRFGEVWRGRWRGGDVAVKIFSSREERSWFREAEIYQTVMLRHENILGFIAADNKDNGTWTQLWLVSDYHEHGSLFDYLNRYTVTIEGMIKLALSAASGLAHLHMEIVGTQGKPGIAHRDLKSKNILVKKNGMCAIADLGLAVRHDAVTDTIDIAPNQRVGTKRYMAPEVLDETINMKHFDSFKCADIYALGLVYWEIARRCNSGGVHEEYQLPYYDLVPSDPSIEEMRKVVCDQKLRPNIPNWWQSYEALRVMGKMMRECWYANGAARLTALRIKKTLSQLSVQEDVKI
Procedure: (§1) The Kinome Screening was performed by Reaction Biology Europe GmbH (http://reactionbiology.com; Freiburg i. Br., Germany).

BTK = biological target: T2, BTK (Homo sapiens, UniProt Q06187)
T2 construct: purchased Reaction Biology Europe GmbH (formerly ProQinase)
T2 sequence (Q06187 whole entry): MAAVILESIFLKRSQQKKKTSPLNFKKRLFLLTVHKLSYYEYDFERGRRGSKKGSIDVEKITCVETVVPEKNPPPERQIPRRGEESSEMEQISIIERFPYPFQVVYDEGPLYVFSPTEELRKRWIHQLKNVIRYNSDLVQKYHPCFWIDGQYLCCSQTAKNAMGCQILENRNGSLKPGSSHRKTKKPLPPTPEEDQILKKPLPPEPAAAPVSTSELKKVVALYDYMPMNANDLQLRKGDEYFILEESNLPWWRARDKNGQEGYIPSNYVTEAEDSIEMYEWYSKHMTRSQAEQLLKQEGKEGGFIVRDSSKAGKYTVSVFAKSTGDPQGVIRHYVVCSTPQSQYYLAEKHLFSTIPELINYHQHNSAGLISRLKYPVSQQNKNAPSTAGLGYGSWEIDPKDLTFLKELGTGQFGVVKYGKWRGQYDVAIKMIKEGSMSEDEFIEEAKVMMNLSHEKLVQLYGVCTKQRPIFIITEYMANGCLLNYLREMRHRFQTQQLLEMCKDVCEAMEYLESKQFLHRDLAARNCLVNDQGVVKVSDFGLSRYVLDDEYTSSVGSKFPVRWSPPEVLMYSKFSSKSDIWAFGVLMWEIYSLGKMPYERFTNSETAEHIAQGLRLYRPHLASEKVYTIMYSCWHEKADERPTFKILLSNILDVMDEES
Procedure: as §1

MLK4 = biological target: T3, MLK4 (Homo sapiens, UniProt Q5TCX8)
T3 construct: purchased Reaction Biology Europe GmbH (formerly ProQinase)
T3 sequence (Q5TCX8 whole entry): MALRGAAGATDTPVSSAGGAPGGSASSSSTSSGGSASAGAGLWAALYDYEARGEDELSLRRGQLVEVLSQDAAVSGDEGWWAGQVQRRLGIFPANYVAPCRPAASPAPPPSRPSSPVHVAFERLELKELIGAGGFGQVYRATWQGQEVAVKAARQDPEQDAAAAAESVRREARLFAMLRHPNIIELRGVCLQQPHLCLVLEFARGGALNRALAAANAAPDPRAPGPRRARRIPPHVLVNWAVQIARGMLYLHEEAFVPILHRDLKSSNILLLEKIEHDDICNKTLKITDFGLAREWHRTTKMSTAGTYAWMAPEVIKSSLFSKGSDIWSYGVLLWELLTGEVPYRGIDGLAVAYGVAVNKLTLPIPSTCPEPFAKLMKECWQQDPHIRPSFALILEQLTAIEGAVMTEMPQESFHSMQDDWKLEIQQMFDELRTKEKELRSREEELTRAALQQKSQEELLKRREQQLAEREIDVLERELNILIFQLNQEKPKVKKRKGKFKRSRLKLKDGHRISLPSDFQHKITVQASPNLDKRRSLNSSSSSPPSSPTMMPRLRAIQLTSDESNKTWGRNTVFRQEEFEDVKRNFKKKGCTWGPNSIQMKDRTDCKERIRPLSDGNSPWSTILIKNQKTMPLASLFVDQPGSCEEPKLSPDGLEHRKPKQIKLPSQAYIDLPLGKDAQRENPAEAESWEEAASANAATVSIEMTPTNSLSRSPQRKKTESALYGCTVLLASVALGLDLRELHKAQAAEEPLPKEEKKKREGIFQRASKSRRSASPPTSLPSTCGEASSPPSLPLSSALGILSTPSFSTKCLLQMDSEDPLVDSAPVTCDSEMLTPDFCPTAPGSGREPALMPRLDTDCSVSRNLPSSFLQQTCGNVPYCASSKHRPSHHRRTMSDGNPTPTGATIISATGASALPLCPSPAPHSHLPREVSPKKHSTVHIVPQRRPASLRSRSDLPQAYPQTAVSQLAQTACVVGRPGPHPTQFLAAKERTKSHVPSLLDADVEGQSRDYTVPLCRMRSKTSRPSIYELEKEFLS
Procedure: as §1

PIM2 = biological target: T4, PIM2 (Homo sapiens, UniProt Q9P1W9)
T4 construct: purchased Reaction Biology Europe GmbH (formerly ProQinase)
T4 sequence (Q9P1W9 whole entry): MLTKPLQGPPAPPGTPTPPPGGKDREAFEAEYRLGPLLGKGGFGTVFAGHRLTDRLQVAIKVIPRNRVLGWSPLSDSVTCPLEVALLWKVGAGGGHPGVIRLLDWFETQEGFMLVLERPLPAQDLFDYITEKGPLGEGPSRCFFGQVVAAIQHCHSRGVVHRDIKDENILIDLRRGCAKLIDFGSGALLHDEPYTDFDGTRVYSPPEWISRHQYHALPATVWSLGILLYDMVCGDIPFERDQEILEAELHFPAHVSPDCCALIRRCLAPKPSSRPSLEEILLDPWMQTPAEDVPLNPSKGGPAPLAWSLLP
Procedure: as §1

PRKG2 = biological target: T5, PRKG2 (Homo sapiens, UniProt Q13237)
T5 construct: purchased Reaction Biology Europe GmbH (formerly ProQinase)
T5 sequence (Q13237 1-762): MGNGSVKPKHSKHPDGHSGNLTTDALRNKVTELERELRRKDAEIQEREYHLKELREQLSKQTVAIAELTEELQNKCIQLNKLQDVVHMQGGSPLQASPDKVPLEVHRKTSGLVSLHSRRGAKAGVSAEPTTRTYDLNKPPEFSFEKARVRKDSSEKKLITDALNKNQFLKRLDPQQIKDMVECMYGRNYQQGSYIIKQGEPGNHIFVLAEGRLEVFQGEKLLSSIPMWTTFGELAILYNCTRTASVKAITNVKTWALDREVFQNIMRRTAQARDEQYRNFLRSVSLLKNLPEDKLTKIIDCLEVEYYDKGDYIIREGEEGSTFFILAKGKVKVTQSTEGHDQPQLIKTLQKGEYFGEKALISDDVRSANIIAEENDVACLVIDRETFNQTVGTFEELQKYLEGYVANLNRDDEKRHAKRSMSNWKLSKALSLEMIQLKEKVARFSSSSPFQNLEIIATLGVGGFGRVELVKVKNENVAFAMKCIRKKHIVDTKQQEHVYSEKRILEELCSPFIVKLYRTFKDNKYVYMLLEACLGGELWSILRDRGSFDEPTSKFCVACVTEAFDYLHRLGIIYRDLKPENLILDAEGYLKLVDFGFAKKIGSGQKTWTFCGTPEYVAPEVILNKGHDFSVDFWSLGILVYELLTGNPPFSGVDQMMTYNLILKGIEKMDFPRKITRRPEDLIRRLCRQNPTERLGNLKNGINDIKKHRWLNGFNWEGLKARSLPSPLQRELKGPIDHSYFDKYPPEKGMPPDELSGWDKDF
Procedure: as §1

RIPK4 = biological target: T6, RIPK4 (Homo sapiens, UniProt P57078)
T6 construct: purchased Reaction Biology Europe GmbH (formerly ProQinase)
T6 sequence (P57078 1-832): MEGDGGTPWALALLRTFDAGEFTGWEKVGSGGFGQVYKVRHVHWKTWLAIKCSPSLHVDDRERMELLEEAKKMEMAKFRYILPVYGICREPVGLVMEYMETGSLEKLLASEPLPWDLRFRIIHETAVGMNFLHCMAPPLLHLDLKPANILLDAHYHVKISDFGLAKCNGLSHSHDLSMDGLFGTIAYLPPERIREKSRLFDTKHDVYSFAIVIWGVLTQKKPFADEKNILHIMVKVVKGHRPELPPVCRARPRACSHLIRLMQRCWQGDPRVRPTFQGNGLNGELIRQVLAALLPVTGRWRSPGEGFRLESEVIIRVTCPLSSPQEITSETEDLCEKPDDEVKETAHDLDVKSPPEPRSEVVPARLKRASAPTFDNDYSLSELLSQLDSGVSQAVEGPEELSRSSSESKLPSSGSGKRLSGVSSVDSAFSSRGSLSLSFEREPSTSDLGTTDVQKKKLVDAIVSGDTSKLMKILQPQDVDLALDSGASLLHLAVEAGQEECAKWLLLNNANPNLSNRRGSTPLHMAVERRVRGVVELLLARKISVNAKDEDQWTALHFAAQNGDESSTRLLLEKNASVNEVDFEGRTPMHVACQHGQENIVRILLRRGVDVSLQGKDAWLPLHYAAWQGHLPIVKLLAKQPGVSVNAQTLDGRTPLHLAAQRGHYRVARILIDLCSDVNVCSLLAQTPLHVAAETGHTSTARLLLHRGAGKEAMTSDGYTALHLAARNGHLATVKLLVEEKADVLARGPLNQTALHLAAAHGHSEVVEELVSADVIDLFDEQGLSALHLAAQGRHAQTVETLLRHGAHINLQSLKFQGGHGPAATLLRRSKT
Procedure: as §1

| Compound | residual kinase activity (ACVR1B; 0.03 µM) | residual kinase activity (ACVR1B; 0.3 µM) | residual kinase activity (BTK; 0.03 µM) | residual kinase activity (BTK; 0.3 µM) | residual kinase activity (MLK4; 0.03 µM) | residual kinase activity (MLK4; 0.3 µM) | residual kinase activity (PIM2; 0.03 µM) | residual kinase activity (PIM2; 0.3 µM) | residual kinase activity (PRKG2; 0.03 µM) | residual kinase activity (PRKG2; 0.3 µM) | residual kinase activity (RIPK4; 0.03 µM) | residual kinase activity (RIPK4; 0.3 µM) | residual kinase activity (ACVR1B; 3 µM) | residual kinase activity (BTK; 3 µM) | residual kinase activity (MLK4; 3 µM) | residual kinase activity (PIM2; 3 µM) | residual kinase activity (PRKG2; 3 µM) | residual kinase activity (RIPK4; 3 µM) |
| --- | --- | --- | --- | --- | --- | --- | --- | --- | --- | --- | --- | --- | --- | --- | --- | --- | --- | --- |
| COc1ccnc2[nH]cc(-c3cc(N)nc(N)c3)c12 [meriolin 16] | 75 % of control | 69 % of control | 114 % of control | 96 % of control | 105 % of control | 75 % of control | 115 % of control | 83 % of control | 48 % of control | 7 % of control | 94 % of control | 75 % of control |  |  |  |  |  |  |
| c1ccc(CNc2cc(-c3c[nH]c4ncccc34)ccn2)cc1 [meriolin 36] |  | 43 % of control |  | 103 % of control |  | 73 % of control |  | 119 % of control |  | 14 % of control |  | 88 % of control | 10 % of control | 77 % of control | 40 % of control | 90 % of control | 2 % of control | 45 % of control |
